# In PMC10350922, “Allosteric Inhibitors of Macrophage Migration Inhibitory Factor (MIF) Interfere with Apoptosis-Inducing Factor (AIF) Co-Localization to Prevent Parthanatos” (Journal of Medicinal Chemistry, 2023):
# System: HeLa cells
# Experiment: Cell viability (MTS) assay, MNNG-induced parthanatos
# Format: cell-based
# Settings: MTS assay
row,Compound,Protective effect in MNNG-induced parthanatos
1,"COc1ccc(N2Cc3ccc(O)cc3OC2=O)cc1OC [ZP143, reference compound]",no protective effect

# Target: T1, MIF (Homo sapiens, UniProt P14174)
# T1 construct: made in house; host or cells: Escherichia coli BL21, pET-20b(p) plasmid
# T1 sequence (P14174 2-115 limits assumed): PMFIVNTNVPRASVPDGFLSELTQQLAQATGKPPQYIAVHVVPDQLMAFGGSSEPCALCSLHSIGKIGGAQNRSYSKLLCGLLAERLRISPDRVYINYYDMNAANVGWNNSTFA
# Experiment: MIF tautomerase activity assay (PP substrate, UV absorbance at 300 nm)
# Format: biochemical
# Settings: 10 μM inhibitor; activity without inhibitor set to 100%; mean, n = 3
# Description: Recombinant human MIF with a C-terminal His-tag was expressed and purified following methods published previously.[47] The inhibitory potency for MIF tautomerase activity of the 1-phenyl-1H-1,2,3-triazole-4-carboxamides was measured after pre-incubation with MIF. The MIF-catalyzed PP tautomerization was measured by the corresponding change in UV absorbance over the first 3 min of the reaction.[48] Initial screening of the inhibitory potency was performed at 10 μM inhibitor concentration.
# Inhibition of the tautomerase activity and kinetics of MIF was measured using […] (PP) as a substrate. A stock solution was prepared by mixing PP in 50 mM ammonium acetate buffer and adjusted to pH 6.0 using 1.0 M NaOH to provide a concentration of 20 mM. This solution was incubated overnight at 37 °C to allow equilibration of the keto and enol forms and then stored at 4 °C. For the assay, MIF stock solution (10 μL, 70 μM) was diluted in 20 mL of the boric acid buffer (435 mM H3BO3, 1 mM EDTA, pH 6.2) to provide 35 nM solution. The enzyme activity was determined by premixing 192 μL of the MIF dilution with 8 μL of the inhibitors dissolved in DMSO (1 mM). This mixture was preincubated for 10 min. Next, 50 μL of the mixture was mixed with 50 μL of 2 mM PP solution in ammonium acetate buffer. Subsequently, MIF tautomerase activity was monitored by the formation of the borate–enol complex, which was measured by the increase in UV absorbance at 300 nm. The increase in UV absorbance was measured over the first 10 min of incubation using a BioTek Synergy H1 Hybrid plate reader. MIF tautomerase activity in the presence of blank DMSO was set to 100% enzyme activity. […] Data from the first 3 min were used to calculate the initial velocities. All of the graphs were prepared in GraphPad Prism.
# For the IC50 measurements, 1 mM solutions of the compounds were double-diluted 10 times in DMSO and subsequently, the MIF tautomerase activity was determined by premixing 190 μL of the MIF dilution with 10 μL of the inhibitors. This mixture was preincubated for 10 min and mixed with the 2 mM PP solution as described above.
remaining activity at 10 µM,Compound,Activity of MIF (%)
66%,"O=C(NCCc1ccccc1Cl)c1cn(-c2cccc(Cl)c2)nn1 [Compound 6t, N-(2-Chlorophenethyl)-1-(3-chlorophenyl)-1H-1,2,3-triazole-4-carboxamide]",–
90%,O=C(CCc1ccco1)NCc1cn(-c2ccc(Cl)c(Cl)c2)nn1 [Compound 6i],–
58%,"COC(=O)C(Cc1ccccc1)NC(=O)c1cn(-c2ccc(Cl)c(Cl)c2)nn1 (centres unmarked) [Compound 6j, Methyl-(1-(3,4-dichlorophenyl)-1H-1,2,3-triazole-4-carbonyl)phenylalaninate]",–
65%,"O=C(NCCc1ccccc1Cl)c1cn(-c2ccc(Cl)c(Cl)c2)nn1 [Compound 6h, N-(2-Chlorophenethyl)-1-(3,4-dichlorophenyl)-1H-1,2,3-triazole-4-carboxamide]",–
58%,"O=C(NCc1ccc(Cl)cc1)c1cn(-c2ccc(F)cc2)nn1 [Compound 6q, N-(4-Chlorobenzyl)-1-(4-fluorophenyl)-1H-1,2,3-triazole-4-carboxamide]",–
47%,"N#Cc1cc(Cl)ccc1-n1cc(C(=O)Nc2ccc(F)cc2)nn1 [Compound 6n, 1-(4-Chloro-2-cyanophenyl)-N-(4-fluorophenyl)-1H-1,2,3-triazole-4-carboxamide]",–
65%,"O=C(Nc1ccc(F)cc1)c1cn(-c2ccccc2)nn1 [Compound 6b, N-(4-Fluorophenyl)-1-phenyl-1H-1,2,3-triazole-4-carboxamide]",–
37%,"O=C(Nc1ccc(Br)cc1)c1cn(-c2ccccc2)nn1 [Compound 6c, N-(4-Bromophenyl)-1-phenyl-1H-1,2,3-triazole-4-carboxamide]",–
60%,"COC(=O)CC1CC(c2ccc(O)cc2)=NO1 (centres unmarked) [ISO-1, reference compound]",–
54%,"Cc1ccc(-n2cc(C(=O)Nc3ccc(F)cc3)nn2)cc1C [Compound 6g, 1-(3,4-Dimethylphenyl)-N-(4-fluorophenyl)-1H-1,2,3-triazole-4-carboxamide]",–
50%,"O=C(NC1CCCC1)c1cn(-c2ccc(Cl)c(Cl)c2)nn1 [Compound 6k, N-Cyclopentyl-1-(3,4-dichlorophenyl)-1H-1,2,3-triazole-4-carboxamide]",–
50%,"CCc1ccc(-n2cc(C(=O)Nc3cccc(F)c3)nn2)cc1 [Compound 6f, 1-(4-Ethylphenyl)-N-(3-fluorophenyl)-1H-1,2,3-triazole-4-carboxamide]",–
21%,"Cc1ccc(-n2cc(C(=O)NCc3ccccc3)nn2)cc1C [Compound 6v, N-Benzyl-1-(3,4-dimethylphenyl)-1H-1,2,3-triazole-4-carboxamide]",–
66%,"O=C(NCCc1ccccc1)c1cn(-c2cccc3ncccc23)nn1 [Compound 6u, N-Phenethyl-1-(quinolin-5-yl)-1H-1,2,3-triazole-4-carboxamide]",–
87%,"COc1ccccc1-n1cc(C(=O)Nc2ccc(Cl)cc2)nn1 [Compound 6d, N-(4-Chlorophenyl)-1-(2-methoxyphenyl)-1H-1,2,3-triazole-4-carboxamide]",–
45%,"CCc1ccc(NC(=O)c2cn(-c3ccc(F)cc3[N+](=O)[O-])nn2)cc1 [Compound 6p, N-(4-Ethylphenyl)-1-(4-fluoro-2-nitrophenyl)-1H-1,2,3-triazole-4-carboxamide]",–
14%,"O=C(Nc1ccccc1)c1ccc(-n2cc(C(=O)NCc3ccccc3)nn2)cc1 [Compound 6x, N-Benzyl-1-(4-(phenylcarbomyl)phenyl)-1H-1,2,3-triazole-4-carboxamide]",–
40%,"O=C(NCCc1ccccc1)c1cn(-c2cccc(Cl)c2)nn1 [Compound 6s, 1-(3-Chlorophenyl)-N-phenethyl-1H-1,2,3-triazole-4-carboxamide]",–
38%,"O=C(NCc1ccco1)c1cn(-c2ccc(Cl)c(Cl)c2)nn1 [Compound 6l, 1-(3,4-Dichlorophenyl)-N-(furan-2-ylmethyl)-1H-1,2,3-triazole-4-carboxamide]",–
57%,"O=C(NCc1ccc(Cl)cc1)c1cn(-c2ccc(Cl)cc2)nn1 [Compound 6r, N-(4-Chlorobenzyl)-1-4-chlorophenyl-1H-1,2,3-triazole-4-carboxamide]",–
39%,"CC(NC(=O)c1cn(-c2ccc(C(=O)NC3CC3)cc2)nn1)c1ccccc1 (centres unmarked) [Compound 6w, 1-(4-(Cyclopropylcarbamoyl)phenyl)-N-(1-phenylethyl)-1H-1,2,3-triazole-4-carboxamide]",–
79%,"COc1ccccc1-n1cc(C(=O)NC(C)c2ccc(Br)cc2)nn1 (centres unmarked) [Compound 6e, N-(1-(4-Bromophenyl)ethyl)-1-(2-methoxyphenyl)-1H-1,2,3-triazole-4-carboxamide]",–
80%,"COc1ccc(CNC(=O)c2cn(-c3ccc(Cl)c(Cl)c3)nn2)cc1OC [Compound 6m, 1-(3,4-Dichlorophenyl)-N-(3,4-dimethoxybenzyl)-1H-1,2,3-triazole-4-carboxamide]",–
84%,"O=C(Nc1ccccc1)c1cn(-c2ccccc2)nn1 [Compound 6a, N,1-Diphenyl-1H-1,2,3-triazole-4-carboxamide]",–
–,"N-(4-Bromophenyl)-1-(4-cyanophenyl)-1H-1,2,3-triazole-4-carboxamide [Compound 6o]",44%

# Same assay, conditions: PP as substrate, 10 min preincubation; read-out: IC50, inhibition of MIF tautomerase activity
row,IC50,Compound
1,6500 ± 400 nM,"Cc1ccc(-n2cc(C(=O)NCc3ccccc3)nn2)cc1C [Compound 6v, N-Benzyl-1-(3,4-dimethylphenyl)-1H-1,2,3-triazole-4-carboxamide]"
2,2500 ± 100 nM,"O=C(Nc1ccccc1)c1ccc(-n2cc(C(=O)NCc3ccccc3)nn2)cc1 [Compound 6x, N-Benzyl-1-(4-(phenylcarbomyl)phenyl)-1H-1,2,3-triazole-4-carboxamide]"

# Target: MIF
# Experiment: not given
# Parameters: method as in PMID 32940040
# Settings: competitive MIF tautomerase inhibitor; cited from earlier work
row,Compound,Ki
1,"COc1ccc(N2Cc3ccc(O)cc3OC2=O)cc1OC [ZP143, reference compound]",100 ± 10 nM
